Assay results reported in article PMC6009979, “The role of 5-arylalkylamino- and 5-piperazino- moieties on the 7-aminopyrazolo[4,3-d]pyrimidine core in affecting adenosine A1 and A2A receptor affinity and selectivity profiles” (Journal of Enzyme Inhibition and Medicinal Chemistry, 2017).

Tests used:
hA2B AR = target: T1, hA2B AR (Homo sapiens, UniProt P29275); assay: cAMP assay in hA2B CHO cells stimulated by 200 nM NECA; assay type: cell-based; conditions: read-out: cAMP assays I% hA2B
T1 construct: expressed in transfected cells; host or cells: CHO cells
T1 sequence (P29275 1-332): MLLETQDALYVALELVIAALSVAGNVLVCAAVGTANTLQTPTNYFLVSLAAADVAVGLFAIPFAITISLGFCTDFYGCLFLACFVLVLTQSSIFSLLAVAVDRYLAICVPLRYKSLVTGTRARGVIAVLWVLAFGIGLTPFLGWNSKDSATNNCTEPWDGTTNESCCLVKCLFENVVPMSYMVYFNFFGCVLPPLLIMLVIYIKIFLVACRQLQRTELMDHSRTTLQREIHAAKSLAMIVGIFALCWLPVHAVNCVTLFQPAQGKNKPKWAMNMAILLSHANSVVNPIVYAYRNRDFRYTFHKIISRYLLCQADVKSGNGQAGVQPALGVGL
Procedure: CHO cells transfected with hA2B AR subtypes were washed with phosphate-buffered saline, diluted trypsin and centrifuged for 10 min at 200 g. The cells (1 × 10^6 cells/assay) were suspended in 0.5 ml of incubation mixture (mM): NaCl 15, KCl 0.27, NaH2PO4 0.037, MgSO4 0.1, CaCl2 0.1, Hepes 0.01, MgCl2 1, glucose 0.5, pH 7.4 at 37 °C, 2 IU/ml adenosine deaminase and 4–(3-butoxy-4-methoxybenzyl)-2-imidazolidinone (Ro 20–1724) as phosphodiesterase inhibitor and preincubated for 10 min in a shaking bath at 37 °C. The potency of antagonists to the A2B AR was determined by the inhibition of NECA (200 nM)-induced cyclic AMP production. The reaction was terminated by the addition of cold 6% trichloroacetic acid (TCA). The TCA suspension was centrifuged at 2000 g for 10 min at 4 °C and the supernatant was extracted four times with water saturated diethyl ether. The final aqueous solution was tested for cyclic AMP levels by a competition protein binding assay. Samples of cyclic AMP standard (0–10 pmoles) were added to each test tube containing [^3H] cyclic AMP and incubation buffer (trizma base 0.1 M, aminophylline 8.0 mM, 2-mercaptoethanol 6.0 mM, pH 7.4). The binding protein prepared from beef adrenals was added to the samples previously incubated at 4 °C for 150 min, and, after the addition of charcoal, was centrifuged at 2000 g for 10 min. The clear supernatant was counted in a Scintillation Counter Packard Tri Carb 2810 TR with an efficiency of 58%.
(§1) The protein concentration was determined according to a Bio-Rad method[56] with bovine albumin as a standard reference. Inhibitory binding constant (Ki) values were calculated from those of IC50 according to Cheng & Prusoff equation Ki = IC50/(1 + [C*]/KD*), where [C*] is the concentration of the radioligand and KD* its dissociation constant. A weighted non-linear least-squares curve fitting program LIGAND[58] was used for computer analysis of inhibition experiments. IC50 values obtained in cyclic AMP assay were calculated by non-linear regression analysis using the equation for a sigmoid concentration–response curve (Graph-PAD Prism, San Diego, CA).

hA3 AR = target: T2, hA3 AR (Homo sapiens, UniProt P0DMS8); assay: [125I]AB-MECA competition binding to hA3 CHO membranes; conditions: for Ki: mean ± SEM of four assays, read-out: Binding experiments Ki hA3; for inhibition at 1 µM / inhibition: read-out: Binding experiments I% hA3, inhibition at 1 μM
T2 construct: expressed in transfected cells; host or cells: CHO cells (membranes)
T2 sequence (P0DMS8 1-318): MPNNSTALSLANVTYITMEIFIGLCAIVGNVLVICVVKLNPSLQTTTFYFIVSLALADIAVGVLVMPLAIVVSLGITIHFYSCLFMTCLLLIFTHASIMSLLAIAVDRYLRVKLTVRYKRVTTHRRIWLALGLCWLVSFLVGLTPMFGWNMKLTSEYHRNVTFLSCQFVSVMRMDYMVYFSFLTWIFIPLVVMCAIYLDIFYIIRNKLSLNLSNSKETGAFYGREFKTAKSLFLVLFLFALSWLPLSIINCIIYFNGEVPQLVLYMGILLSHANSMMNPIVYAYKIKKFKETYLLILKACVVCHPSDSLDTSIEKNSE
Procedure: All synthesized compounds were tested to evaluate their affinity at human A1, A2A and A3 ARs. Displacement experiments of [^3H]DPCPX (1 nM) to hA1 CHO membranes (50 µg of protein/assay) and at least 6–8 different concentrations of antagonists for 120 min at 25 °C in 50 mM Tris-HCl buffer pH 7.4 were performed. Non-specific binding was determined in the presence 1 µM of DPCPX (≤10% of the total binding). […] Competition binding experiments to hA3 CHO membranes (50 µg of protein/assay) were performed incubating 0.5 nM [^125I]AB-MECA, 50 mM Tris-HCl buffer, 10 mM MgCl2, 1 mM EDTA, pH 7.4 and at least 6–8 different concentrations of examined ligands for 60 min at 37 °C[54]. Non-specific binding was defined as binding in the presence of 1 µM AB-MECA and was about 20% of total binding. Bound and free radioactivity were separated by filtering the assay mixture through Whatman GF/B glass fiber filters by using a Brandel cell harvester. The filter bound radioactivity was counted by Scintillation Counter Packard Tri Carb 2810 TR with an efficiency of 58%.
as §1

hA2A AR = target: T3, hA2A AR (Homo sapiens, UniProt P29274); assay: [3H]ZM241385 competition binding to hA2A CHO membranes; conditions: [3H]ZM241385, hA2A CHO; for Ki: mean ± SEM of four assays, read-out: Binding experiments Ki hA2A; for Binding experiments I% hA2A: inhibition at 1 μM
T3 construct: expressed in transfected cells; host or cells: CHO cells (membranes)

hA1 AR = target: T4, hA1 AR (Homo sapiens, UniProt P30542); assay: [3H]DPCPX competition binding to hA1 CHO membranes; conditions: for Ki: mean ± SEM of four assays, read-out: Binding experiments Ki hA1; for Binding experiments I% hA1: inhibition at 1 μM
T4 construct: expressed in transfected cells; host or cells: CHO cells (membranes)
T4 sequence (P30542 1-326): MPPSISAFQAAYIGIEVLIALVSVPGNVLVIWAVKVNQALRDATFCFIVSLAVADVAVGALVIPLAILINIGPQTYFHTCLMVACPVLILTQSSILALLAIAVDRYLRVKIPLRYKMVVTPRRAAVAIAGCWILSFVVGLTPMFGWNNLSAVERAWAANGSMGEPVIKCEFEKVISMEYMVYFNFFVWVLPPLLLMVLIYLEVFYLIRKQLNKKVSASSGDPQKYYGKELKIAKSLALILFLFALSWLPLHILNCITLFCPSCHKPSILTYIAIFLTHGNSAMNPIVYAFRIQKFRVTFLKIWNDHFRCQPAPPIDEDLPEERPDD

T3 sequence (P29274 whole entry): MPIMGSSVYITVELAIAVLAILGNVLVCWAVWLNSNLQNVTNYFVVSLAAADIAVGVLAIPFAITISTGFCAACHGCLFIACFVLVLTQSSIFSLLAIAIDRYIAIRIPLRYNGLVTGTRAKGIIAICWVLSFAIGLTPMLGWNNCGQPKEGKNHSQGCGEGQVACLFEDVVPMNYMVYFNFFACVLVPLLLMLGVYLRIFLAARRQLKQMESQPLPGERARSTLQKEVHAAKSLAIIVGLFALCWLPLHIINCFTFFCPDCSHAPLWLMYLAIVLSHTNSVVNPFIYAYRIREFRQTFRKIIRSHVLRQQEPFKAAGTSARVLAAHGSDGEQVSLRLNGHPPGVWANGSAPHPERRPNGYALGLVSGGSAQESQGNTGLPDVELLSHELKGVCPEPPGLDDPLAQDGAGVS

Compound | inhibition at 1 µM (hA2B AR) | Ki (hA3 AR) | Ki (hA2A AR) | Ki (hA1 AR) | Binding experiments I% hA2A (hA2A AR) | Binding experiments I% hA1 (hA1 AR) | inhibition at 1 µM (hA3 AR) | inhibition (hA3 AR)
Nc1nc(Nc2ccccc2)nc2cn(-c3ccccc3)nc12 [Compound 1, 7-Amino-5-phenylamino-2-phenyl-2H-pyrazolo[4,3-d]pyrimidine] | 2% | 13 ± 2 nM | 412 ± 37 nM | 67 ± 5 nM | – | – | – | –
COc1ccc(Nc2nc(N)c3nn(-c4ccccc4)cc3n2)cc1 [Compound 2, 7-Amino-5-(4-methoxyphenyl)amino-2-phenyl-2H-pyrazolo[4,3-d]pyrimidine] | 1% | 27 ± 3 nM | – | – | 8% | 33% | – | –
Nc1nc(Nc2ccc(Cl)cc2Cl)nc2cn(-c3ccccc3)nc12 [Compound 3, 7-Amino-5–(2,4-dichlorophenyl)amino-2-phenyl-2H-pyrazolo[4,3-d]pyrimidine] | 2% | 61 ± 8 nM | – | – | 1% | 1% | – | –
Nc1nc(Nc2ccc(O)cc2)nc2cn(-c3ccccc3)nc12 [Compound 4, 7-Amino-5-(4-hydroxyphenyl)amino-2-phenyl-2H-pyrazolo[4,3-d]pyrimidine] | 10% | – | – | 481 ± 42 nM | 40% | – | 8% | –
Nc1nc(NCc2ccccc2)nc2cn(-c3ccccc3)nc12 [Compound 5, 7-Amino-5-benzylamino-2-phenyl-2H-pyrazolo[4,3-d]pyrimidine] | 2% | 28 ± 3 nM | 123 ± 11 nM | 25 ± 3 nM | – | – | – | –
Nc1nc(NCCc2ccccc2)nc2cn(-c3ccccc3)nc12 [Compound 6, 7-Amino-5-(2-phenylethyl)amino-2-phenyl-2H-pyrazolo[4,3-d]pyrimidine] | 1% | – | – | 11.5 ± 1.2 nM | 40% | – | 38% | –
Nc1nc(NCCCc2ccccc2)nc2cn(-c3ccccc3)nc12 [Compound 7, 7-Amino-5-(3-phenylpropyl)-2-phenyl-2H-pyrazolo[4,3-d]pyrimidines] | 1% | – | – | 785 ± 72 nM | 29% | – | 24% | –
Cn1cc2nc(Nc3ccccc3)nc(N)c2n1 [Compound 8, 7-Amino-2-methyl-5-phenylamino-2H-pyrazolo[4,3-d]pyrimidine] | 1% | – | – | – | 4% | 1% | 1% | –
Cn1cc2nc(NCc3ccccc3)nc(N)c2n1 [Compound 9, 7-Amino-5-benzylamino-2-methyl-2H-pyrazolo[4,3-d]pyrimidine] | 1% | – | – | – | 1% | 9% | 20% | –
Nc1nc(NCc2ccccc2)nc2cn(Cc3ccccc3)nc12 [Compound 10, 7-Amino-2-benzyl-5-benzylamino-2H-pyrazolo[4,3-d]pyrimidine] | 1% | – | – | – | 1% | 19% | 1% | –
COc1ccc(CCNc2nc(N)c3nn(-c4ccccc4)cc3n2)cc1 [Compound 11, 7-Amino-5-[2–(4-methoxyphenyl)ethyl]amino-2-phenyl-2H-pyrazolo[4,3-d]pyrimidine] | 1% | – | – | 153 ± 11 nM | 26% | – | 19% | –
Nc1nc(NCCc2ccc(O)cc2)nc2cn(-c3ccccc3)nc12 [Compound 12, 7-Amino-5-(4-hydroxyphenethyl)amino-2-phenyl-2H-pyrazolo[4,3-d]pyrimidine] | 1% | – | 150 ± 14 nM | – | – | 27% | 1% | –

Now from value to molecule:

inhibition at 1 µM (hA2B AR) | Ki (hA3 AR) | Ki (hA2A AR) | Ki (hA1 AR) | Binding experiments I% hA2A (hA2A AR) | Binding experiments I% hA1 (hA1 AR) | inhibition at 1 µM (hA3 AR) | inhibition (hA3 AR) | Compound
17% | – | 189 ± 18 nM | 415 ± 39 nM | – | – | 22% | – | COc1ccc(CCNc2nc(N)c3nn(-c4ccccc4)cc3n2)cc1OC [Compound 13, 7-Amino-5-[2-(3,4-dimethoxyphenyl)ethyl]amino-2-phenyl-2H-pyrazolo[4,3-d]pyrimidine]
1% | – | 238 ± 24 nM | 71 ± 6 nM | – | – | 3% | – | Nc1nc(NCCc2ccc(O)c(O)c2)nc2cn(-c3ccccc3)nc12 [Compound 14, 7-Amino-5-(3,4-dihydroxyphenethyl)amino-2-phenyl-2H-pyrazolo[4,3-d]pyrimidine]
1% | – | – | 647 ± 53 nM | 20% | – | – | 20% | Nc1nc(N2CCN(c3ccccc3)CC2)nc2cn(-c3ccccc3)nc12 [Compound 15, 7-Amino-2-phenyl-5-(4-phenylpiperazin-1-yl)-2H-pyrazolo[4,3-d]pyrimidine]
1% | – | – | 162 ± 14 nM | 1% | – | – | 1% | Nc1nc(N2CCN(Cc3ccccc3)CC2)nc2cn(-c3ccccc3)nc12 [Compound 16, 7-Amino-5-(4-benzylpiperazin-1-yl)-2-phenyl-2H-pyrazolo[4,3-d]pyrimidine]
1% | – | – | 518 ± 42 nM | 40% | – | – | 40% | Nc1nc(N2CCN(CCc3ccccc3)CC2)nc2cn(-c3ccccc3)nc12 [Compound 17, 7-Amino-5-(4-phenylethylpiperazin-1-yl)-2-phenyl-2H-pyrazolo[4,3-d]pyrimidine]
1% | – | – | 204 ± 18 nM | 34% | – | – | 39% | Nc1nc(N2CCN(Cc3c(F)cc(F)cc3F)CC2)nc2cn(-c3ccccc3)nc12 [Compound 18, 7-Amino-5-(4-(2,4,6-trifluoro)benzylpiperazin-1-yl)-2-phenyl-2H-pyrazolo[4,3-d]pyrimidine]
2% | – | – | 193 ± 17 nM | 29% | – | – | 1% | Nc1nc(N2CCN(Cc3ccc(F)cc3Cl)CC2)nc2cn(-c3ccccc3)nc12 [Compound 19, 7-Amino-5-(4-(2-chloro-4-fluoro)benzylpiperazin-1-yl)-2-phenyl-2H-pyrazolo[4,3-d]pyrimidine]
